In publication PMC3174134, “Lucanthone and Its Derivative Hycanthone Inhibit Apurinic Endonuclease-1 (APE1) by Direct Protein Binding” (PLoS ONE, 2011):

How the values were obtained:
[1] = tested on: APE1 mutants F266A, F266C, F266A/W280A, D210N; experiment: Circular dichroism of APE1 mutant proteins with lucanthone; set-up: species or system human; conditions: 140 µM lucanthone, 14 µM protein, 37°C, 60 min
Method: (§1) APE1 and its mutant proteins (10 mg/ml), 50 µl (500 µg) (14 µM) in APE1 buffer (50 mM HEPES, pH 7.4, 150 mM KCl, 5 mM MgCl2), were mixed with lucanthone/hycanthone (1 mg/ml), 50 µl (50 µg), 140 µM and incubated at 37°C for 60 min and far UV-CD spectra were recorded at NSLS U11 beam line at BNL. Lucanthone and hycanthone were also scanned as drug controls. The scanning parameters used were a 0.001 cm path length quartz cell, scanning wavelengths from 260 to 170 nm, bandwidth of 0.5 nm, digital integration time of 1 s, time constant of 200 ms, step size of 1 nm, and sensitivity of 200 µV. The data were corrected with blank subtraction from APE1 buffer alone. The secondary structure for APE1 with or without lucanthone or hycanthone was analyzed using CDSSTR program DICHROWEB [38].

[2] = target: T1, APE1 mutants F266A, F266C, F266A/W280A, D210N (Homo sapiens, UniProt P27695, F266A/W280A); experiment: as above; conditions: 140 µM lucanthone, 14 µM protein, 37°C, 60 min
T1 construct: made in house
Method: as §1

[3] = target: T2, recombinant full length APE1 (Homo sapiens, UniProt P27695); experiment: Cleavage of recombinant full length APE1, Western blot
T2 construct: the full length APE1 protein was successfully expressed and purified; made in house; host or cells: E. coli BL21/DE3
Method: Total purified protein concentration was determined by the ratio of A280/A260. 250 ng of APE1 treated with lucanthone or hycanthone (0.05–100 µM) for 2 h at 37°C in final volume of 30 µl were mixed with an equal volume of gel loading buffer (0.001% bromophenol blue, 4% SDS, 10% 2-ME, 20% glycerol, and 125 mM Tris pH 6.8) and denatured at 95°C for 5 min. Total protein concentration in cell extracts was determined using the Bradford assay (BioRad, Hercules, CA) and 25 µg of total protein from soluble or insoluble cell fractions were mixed with an equal volume of gel loading buffer (0.001% bromophenol blue, 4% SDS, 10% 2-ME, 20% glycerol, and 125 mM Tris pH 6.8) and denatured at 95°C for 5 min. This mixture was separated by SDS-PAGE (4% stacking, 7.5% resolving gel) for 2–3 h at 40 mA on a BioRad MiniPROTEAN II Electrophoresis Cell. To detect proteins, proteins were transferred onto a trans-Blot nitrocellulose membrane (0.45 µm; BioRad) overnight at 4°C at 15 mA in standard Tris-Glycine buffer containing 20% ethanol. […] Chemi-luminescence was developed using an ECL kit according to the manufacturer's instructions and detected by exposing the blot to HyperfilmECL for 30 s–3 min. […]

[4] = target: E.coli endonuclease IV (Nfo) (Escherichia coli, UniProt P0A6C1); experiment: Circular dichroism of E.coli Nfo with lucanthone; conditions: 140 µM lucanthone, 37°C, 60 min
[5] = target: T3, human Nth (Homo sapiens, UniProt P78549); experiment: Cleavage of human Nth by lucanthone (specificity control); conditions: data not shown
T3 sequence (P78549 23-304): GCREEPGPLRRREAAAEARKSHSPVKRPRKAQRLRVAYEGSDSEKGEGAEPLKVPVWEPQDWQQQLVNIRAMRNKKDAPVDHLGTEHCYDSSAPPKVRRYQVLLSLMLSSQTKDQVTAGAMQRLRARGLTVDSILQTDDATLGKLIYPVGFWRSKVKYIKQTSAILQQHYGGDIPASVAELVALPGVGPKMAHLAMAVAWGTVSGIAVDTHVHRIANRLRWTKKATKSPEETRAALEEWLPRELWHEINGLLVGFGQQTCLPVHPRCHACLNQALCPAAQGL

[6] = target: T3, human Nth; experiment: Circular dichroism of human Nth with lucanthone; conditions: 140 µM lucanthone, 37°C, 60 min

T2 sequence (P27695 whole entry): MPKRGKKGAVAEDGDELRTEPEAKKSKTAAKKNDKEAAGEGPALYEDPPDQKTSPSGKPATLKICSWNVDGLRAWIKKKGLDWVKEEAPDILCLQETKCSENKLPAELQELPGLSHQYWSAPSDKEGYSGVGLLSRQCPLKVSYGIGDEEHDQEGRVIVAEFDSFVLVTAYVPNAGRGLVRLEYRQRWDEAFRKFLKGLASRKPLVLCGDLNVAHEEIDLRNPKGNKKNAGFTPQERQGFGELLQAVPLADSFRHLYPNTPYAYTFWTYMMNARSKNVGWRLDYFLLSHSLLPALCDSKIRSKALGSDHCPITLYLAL
T1 sequence (P27695 2-318 F266A/W280A): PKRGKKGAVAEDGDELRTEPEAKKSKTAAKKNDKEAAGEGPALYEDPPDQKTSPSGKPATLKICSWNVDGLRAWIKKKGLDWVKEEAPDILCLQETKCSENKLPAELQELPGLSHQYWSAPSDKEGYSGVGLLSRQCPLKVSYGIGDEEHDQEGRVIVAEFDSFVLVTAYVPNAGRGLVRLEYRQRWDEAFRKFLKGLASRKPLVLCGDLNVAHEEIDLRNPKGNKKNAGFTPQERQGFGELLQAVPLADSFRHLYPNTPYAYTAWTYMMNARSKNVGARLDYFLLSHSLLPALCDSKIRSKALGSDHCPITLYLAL

Compound: CCN(CC)CCNc1ccc(C)c2sc3ccccc3c(=O)c12 [lucanthone, 1-[2-diethylaminoethylamino]-4-methylthioxanthen-9-one]
- Conformational change of wild type and D210N active site mutant APE1 (CD) [1]: able to induce conformational changes
- Conformational change of double mutant F266A/W280A (CD) [2]: almost no conformational change
- Lucanthone-induced cleavage of APE1 in presence of radical quenchers ([3]; 10 mM TRIS, 100 µM ascorbic acid or N-acetyl cysteine (purified APE1), 1% DMSO (cell extracts)): significantly inhibited
- Cleavage of recombinant APE1 ([3]; 10-50 µM, 37°C, 2 h): increase in the formation of the 25 kDa fragment
- Conformational change of E.coli Nfo (CD) [4]: little conformational changes
- Cleavage of human Nth [5]: did not observe any cleavage
- Conformational change of human Nth (CD) [6]: little conformational changes
